Results from PubChem BioAssay AID1918956 (Molecular Pharmacology Branch, DTP, NCI, 2023).

Tested on: OVCAR-5 complex spheroids, viability
Assay: Anticancer human tumor OVCAR-5 cell line growth inhibition;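 also: spheroids exposed to agents for seven days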;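 as to viability, T/C: 100% = DMSO vehicle control wells viability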
Settings: for IC50: curve of first compound; for viability, T/C: stronger effect = lower value
Summary of the method: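 Multicellular complex spheroids of tumor cells with human endothelial cells (HUVEC) and mesenchymal stem cells; the LSD1 inhibitor iadademstat was combined with standard-of-care or investigational agents. Top concentration at or near clinical Cmax, half-log dilutions; final DMSO ≤0.25%.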

[1] = second compound 0.1 µM, first compound 0.0316 µM
[2] = second compound 0.1 µM, first compound 0.1 µM
[3] = second compound 0.1 µM, first compound 0.316 µM
[4] = second compound 0.1 µM, first compound 1 µM
[5] = second compound 0.1 µM, first compound 3.16 µM
[6] = second compound 0.1 µM, first compound 10 µM
[7] = second compound 0.316 µM, first compound 0.0316 µM
[8] = second compound 0.316 µM, first compound 0.1 µM
[9] = second compound 0.316 µM, first compound 0.316 µM
[10] = second compound 0.316 µM, first compound 1 µM
[11] = second compound 0.316 µM, first compound 3.16 µM
[12] = second compound 0.316 µM, first compound 10 µM
[13] = second compound 1 µM, first compound 0.0316 µM
[14] = second compound 1 µM, first compound 0.1 µM
[15] = second compound 1 µM, first compound 0.316 µM
[16] = second compound 1 µM, first compound 1 µM
[17] = second compound 1 µM, first compound 3.16 µM
[18] = second compound 1 µM, first compound 10 µM
[19] = second compound 3.16 µM, first compound 0.0316 µM
[20] = second compound 3.16 µM, first compound 0.1 µM
[21] = second compound 3.16 µM, first compound 0.316 µM
[22] = second compound 3.16 µM, first compound 1 µM
[23] = second compound 3.16 µM, first compound 3.16 µM
[24] = second compound 3.16 µM, first compound 10 µM
[25] = second compound 10 µM, first compound 0.0316 µM
[26] = second compound 10 µM, first compound 0.1 µM
[27] = second compound 10 µM, first compound 0.316 µM
[28] = second compound 10 µM, first compound 1 µM
[29] = second compound 10 µM, first compound 3.16 µM
[30] = second compound 10 µM, first compound 10 µM

CC(C)c1c(-c2ccccc2)nc2c(C#N)c[nH]n2c1=O + NC1CC1c1ccc(-c2cccc(O)c2)cc1
IC50 (second compound 0.1 µM): > 10000 nM
IC50 (second compound 0.316 µM): > 10000 nM
IC50 (second compound 1 µM): > 10000 nM
IC50 (second compound 3.16 µM): > 10000 nM
IC50 (second compound 10 µM): > 10000 nM
viability, T/C [1]: 92.2%
viability, T/C [2]: 98.4%
viability, T/C [3]: 97.4%
viability, T/C [4]: 98.4%
viability, T/C [5]: 99.9%
viability, T/C [6]: 107%
viability, T/C [7]: 98%
viability, T/C [8]: 96%
viability, T/C [9]: 102%
viability, T/C [10]: 102%
viability, T/C [11]: 98%
viability, T/C [12]: 108%
viability, T/C [13]: 87%
viability, T/C [14]: 90%
viability, T/C [15]: 97.1%
viability, T/C [16]: 105%
viability, T/C [17]: 96.1%
viability, T/C [18]: 104%
viability, T/C [19]: 88.3%
viability, T/C [20]: 95.4%
viability, T/C [21]: 77.8%
viability, T/C [22]: 95.6%
viability, T/C [23]: 88.8%
viability, T/C [24]: 98.9%
viability, T/C [25]: 82.2%
viability, T/C [26]: 91%
viability, T/C [27]: 80.5%
viability, T/C [28]: 87.5%
viability, T/C [29]: 87.7%
viability, T/C [30]: 73.5%

CC1COCCN1c1cc(-c2ccnn2C)c2ccnc(-c3ccn[nH]3)c2n1 (stereo not given) + NC1CC1c1ccc(-c2cccc(O)c2)cc1
IC50 (second compound 0.1 µM): 31.6 nM
IC50 (second compound 0.316 µM): 33 nM
IC50 (second compound 1 µM): 24.6 nM
IC50 (second compound 3.16 µM): 25.2 nM
IC50 (second compound 10 µM): 19.9 nM
viability, T/C (second compound 0.1 µM, first compound 0.00316 µM): 98.8%
viability, T/C (second compound 0.1 µM, first compound 0.01 µM): 79.8%
viability, T/C [1]: 49%
viability, T/C [2]: 35.6%
viability, T/C [3]: 31.7%
viability, T/C [4]: 27.9%
viability, T/C (second compound 0.316 µM, first compound 0.00316 µM): 105%
viability, T/C (second compound 0.316 µM, first compound 0.01 µM): 79.1%
viability, T/C [7]: 49.6%
viability, T/C [8]: 36.5%
viability, T/C [9]: 30.4%
viability, T/C [10]: 27.9%
viability, T/C (second compound 1 µM, first compound 0.00316 µM): 91.3%
viability, T/C (second compound 1 µM, first compound 0.01 µM): 72.8%
viability, T/C [13]: 42.3%
viability, T/C [14]: 33.4%
viability, T/C [15]: 27.3%
viability, T/C [16]: 25.8%
viability, T/C (second compound 3.16 µM, first compound 0.00316 µM): 88.9%
viability, T/C (second compound 3.16 µM, first compound 0.01 µM): 75.1%
viability, T/C [19]: 43%
viability, T/C [20]: 32.8%
viability, T/C [21]: 31.1%
viability, T/C [22]: 25.3%
viability, T/C (second compound 10 µM, first compound 0.00316 µM): 95.9%
viability, T/C (second compound 10 µM, first compound 0.01 µM): 62.1%
viability, T/C [25]: 42.5%
viability, T/C [26]: 30.4%
viability, T/C [27]: 31.3%
viability, T/C [28]: 26%

COc1ccc([C@@H](O)c2cc(-c3ncnc4cc(N5CCOCC5)ccc34)c(F)cc2Cl)nn1 + NC1CC1c1ccc(-c2cccc(O)c2)cc1
IC50 (second compound 0.1 µM): 625 nM
IC50 (second compound 0.316 µM): 740 nM
IC50 (second compound 1 µM): 419 nM
IC50 (second compound 3.16 µM): 396 nM
IC50 (second compound 10 µM): 300 nM
viability, T/C [1]: 80.8%
viability, T/C [2]: 72.6%
viability, T/C [3]: 55.3%
viability, T/C [4]: 46.4%
viability, T/C [5]: 29.5%
viability, T/C [6]: 16.4%
viability, T/C [7]: 92.3%
viability, T/C [8]: 79.1%
viability, T/C [9]: 61.4%
viability, T/C [10]: 45.3%
viability, T/C [11]: 31.8%
viability, T/C [12]: 18.1%
viability, T/C [13]: 86.3%
viability, T/C [14]: 73.4%
viability, T/C [15]: 57.1%
viability, T/C [16]: 31.7%
viability, T/C [17]: 25.8%
viability, T/C [18]: 16.7%
viability, T/C [19]: 84%
viability, T/C [20]: 68%
viability, T/C [21]: 49.9%
viability, T/C [22]: 38.8%
viability, T/C [23]: 31.6%
viability, T/C [24]: 15.9%
viability, T/C [25]: 79.1%
viability, T/C [26]: 65.3%
viability, T/C [27]: 46.7%
viability, T/C [28]: 36.6%
viability, T/C [29]: 29.6%
viability, T/C [30]: 16.6%
